How the values were obtained:
[1] = molecular target: T1, Human immunodeficiency virus type 1 integrase (Human immunodeficiency virus 1, UniProt Q7ZJM1); assay: Inhibition of HIV1 recombinant integrase 3' processing activity using [32P]-radiolabeled full-length DNA as substrate after 1 hr by densitometric analysis
[2] = molecular target: T1, Human immunodeficiency virus type 1 integrase; assay: Inhibition of HIV1 recombinant integrase strand transfer activity using [32P]-radiolabeled full-length DNA as substrate after 1 hr by densitometric analysis
[3] = molecular target: Human immunodeficiency virus type 1 integrase (Human immunodeficiency virus 1) (UniProt Q7ZJM1); assay: Selectivity ratio of IC50 for HIV1 recombinant integrase strand transfer activity using precleaved LTR DNA as substrate to IC50 for HIV1 recombinant integrase strand transfer activity using [32P]-radiolabeled full-length DNA as substrate
[4] = molecular target: T1, Human immunodeficiency virus type 1 integrase; assay: Inhibition of HIV1 recombinant integrase strand transfer activity using precleaved LTR DNA as substrate after 1 hr by densitometric analysis

T1 sequence (Q7ZJM1 whole entry): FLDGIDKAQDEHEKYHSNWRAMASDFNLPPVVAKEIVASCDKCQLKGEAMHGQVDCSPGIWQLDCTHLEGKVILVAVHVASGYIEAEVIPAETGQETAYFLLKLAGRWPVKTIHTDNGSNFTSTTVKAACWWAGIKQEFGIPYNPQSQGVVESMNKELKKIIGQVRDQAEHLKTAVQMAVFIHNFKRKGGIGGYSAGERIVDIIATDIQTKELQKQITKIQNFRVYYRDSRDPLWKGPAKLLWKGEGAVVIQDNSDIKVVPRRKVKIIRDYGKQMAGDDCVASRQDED
Chain of Human immunodeficiency virus type 1 integrase (Human immunodeficiency virus 1) (Q7ZJM1 as listed by the source): as the sequence (Q7ZJM1 whole entry) above

| Compound | IC50 [1] [µM] | IC50 [2] [µM] | Ratio IC50 [3] | IC50 [4] [µM] |
| --- | --- | --- | --- | --- |
| CCCCCCCC[N+]1(C)CCCC1 | > 100 | > 100 | – | – |
| CCCCCCCCCCCCCCCCCC[n+]1ccn(C)c1 [listing 1 of 2 here] | – | 1.4 | – | – |
| CN(C)C(N(C)C)N(C)C | > 100 | > 100 | – | – |
| CCCCCCCCCCCCCCn1cc[n+](C)c1 | 55.2 | 20.2 | – | – |
| CCCCCCCC[N+](C)(CCCCCCCC)CCCCCCCC.O=S(=O)([N-]S(=O)(=O)C(F)(F)F)C(F)(F)F | > 100 | 6.6 | – | – |
| CCCCCCCCN(C)CCCCCCCC | > 333 | > 333 | – | – |
| CCCCCCCC[n+]1ccccc1 | > 100 | > 100 | – | – |
| CCCCCCCCCCCCCCCCn1cc[n+](C)c1 | 2.5 | 1.3 | 3 | 5.6 |
| CCCCCCCCN(CCCCCCCC)CCCCCCCC | > 333 | > 333 | – | – |
| CCCCCCCC[n+]1ccn(C)c1 | > 100 | > 100 | – | – |
| CCCCCCCCCCCCCCCCCC[n+]1ccn(C)c1.O=S(=O)([N-]S(=O)(=O)C(F)(F)F)C(F)(F)F | 1.6 | 1.53 | – | 4 |
| CCCCCCCC[N+](C)(CCCCCCCC)CCCCCCCC [listing 1 of 2 here] | 9 | 6.12 | – | – |
| C[N+](C)(C)C.FC(F)(F)C(F)(F)[P-](F)(F)(F)(C(F)(F)C(F)(F)F)C(F)(F)C(F)(F)F | 138 | 38.5 | – | – |
| CCCCCCCCCCn1cc[n+](C)c1 | > 333 | > 333 | – | – |
| CCCCCCCCCCCCCCCCCCn1ccnc1 | > 333 | > 333 | – | – |
| CCCCCCCCCCCCCCCCCC[n+]1ccn(C)c1 [listing 2 of 2 here] | 1.7 | 1.1 | – | 3.5 |
| CCCCCCCCCCCCn1cc[n+](C)c1 | 72 | 36.6 | – | – |
| CCCCCCCC[N+](C)(CCCCCCCC)CCCCCCCC [listing 2 of 2 here] | 6.8 | 2.8 | – | – |
| CCCCCCCCCCn1ccnc1 | > 333 | > 333 | – | – |
| CCCCCCCCCCCCCCCCCCPCCCCCCCCCCCCCC.O=S(=O)(NS(=O)(=O)C(F)(F)F)C(F)(F)F (stereo not given) | > 100 | > 100 | – | – |
| C[N+](C)(C)C.O=C1O[B-]2(OC1=O)OC(=O)C(=O)O2 | > 333 | 310 | – | – |

Reference: ChEMBL document CHEMBL3217518, “Biological evaluation of imidazolium- and ammonium-based salts as HIV-1 integrase inhibitors” (Medchemcomm, 2011)
